Structures can show the parent of a compound that is named as a salt.
Tests used:
[1] = molecular target: T1, cKGA (kidney-type glutaminase) (Homo sapiens, UniProt O94925); conditions: cited from earlier work
T1 sequence (O94925 221-533 limits assumed): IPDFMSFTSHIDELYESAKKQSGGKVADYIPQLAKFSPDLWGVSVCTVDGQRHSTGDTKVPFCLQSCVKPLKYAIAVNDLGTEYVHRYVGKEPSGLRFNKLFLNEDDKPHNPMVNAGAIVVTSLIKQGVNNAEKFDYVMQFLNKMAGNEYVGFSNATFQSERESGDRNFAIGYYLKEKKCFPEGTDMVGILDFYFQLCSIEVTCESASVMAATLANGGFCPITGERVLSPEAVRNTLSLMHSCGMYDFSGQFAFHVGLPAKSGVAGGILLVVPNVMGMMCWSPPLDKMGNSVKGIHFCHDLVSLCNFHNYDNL

GLS2 = molecular target: T2, GLS2 (Homo sapiens, UniProt Q9UI32); conditions: cited from earlier work
T2 sequence (Q9UI32 15-602): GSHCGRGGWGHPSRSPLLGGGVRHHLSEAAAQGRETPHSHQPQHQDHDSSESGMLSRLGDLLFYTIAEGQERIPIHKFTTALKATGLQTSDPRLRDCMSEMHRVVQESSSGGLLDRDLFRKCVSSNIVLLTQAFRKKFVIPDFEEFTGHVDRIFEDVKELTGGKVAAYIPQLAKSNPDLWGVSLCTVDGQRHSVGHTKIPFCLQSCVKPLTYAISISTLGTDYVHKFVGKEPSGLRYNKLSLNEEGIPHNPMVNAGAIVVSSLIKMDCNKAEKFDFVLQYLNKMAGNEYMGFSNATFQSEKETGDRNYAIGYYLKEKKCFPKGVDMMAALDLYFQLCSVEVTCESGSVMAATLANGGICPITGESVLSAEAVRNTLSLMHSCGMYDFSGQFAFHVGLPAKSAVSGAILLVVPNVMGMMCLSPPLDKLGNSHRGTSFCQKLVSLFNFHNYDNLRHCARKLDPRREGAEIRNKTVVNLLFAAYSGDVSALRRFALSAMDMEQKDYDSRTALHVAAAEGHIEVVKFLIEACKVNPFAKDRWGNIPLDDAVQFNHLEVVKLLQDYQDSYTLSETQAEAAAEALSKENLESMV

[2] = tested on: irradiated, senescent HUVEC cells; experiment: Senolytic assay: irradiated senescent vs non-senescent HUVEC cells (CellTiter-Glo); format: cell-based, human; conditions: 1:3 dilution series, dose-dependent (FIG. 3B, 4, 6A, 6B)
Description: (§1) The ability of candidate agents to eliminate senescent retinal vascular endothelial cells or senescent retinal pigmented epithelial cells can be measured directly in the following assay. Human retinal microvascular endothelial cells (HRMEC) can be obtained from Neuromics® with the designation HEC09 or Cell Systems ACBRI 181. Human umbilical vein endothelial cells (HUVEC) can be obtained from Lonza® with the designation CC-2519. The cells can be maintained and propagated at <75% confluency in ENDO-Growth® Media (Neuromics®, Edina M N) at 3% O2, 10% CO2, and ˜95% humidity. Human retinal pigmented epithelial cells (RPE) can be obtained from Lonza® with the designation 194987. […]
(§2) On day 0, the irradiated HRMEC or RPE or HUVEC cells can be incubated with TrypLE trypsin-containing reagent (Thermofisher® Scientific, Waltham, Massachusetts) until the cells round up and begin to detach from the plate. Cells can then be dispersed, counted, and prepared in medium at a concentration of 100,000 cells per mL. […] On day 3, the quiescent healthy non-senescent HRMEC or RPE cells can be trypsinized from the culture flask as described above, and the cells can be dispersed, counted, and prepared in medium at a concentration of 80,000 cells per mL. […]

[3] = tested on: irradiated, senescent HRMEC cells; experiment: Senolytic assay: irradiated senescent vs non-senescent HRMEC cells (CellTiter-Glo); format: cell-based, human; conditions: 1:3 dilution series, dose-dependent (FIG. 3A, FIG. 5)
Description: as §1, §2

GPX4 = molecular target: T3, GPX4 (Mus musculus, UniProt O70325); experiment: GPX4 competitive target engagement gel-shift assay, adult murine retinas; format: in vivo; conditions: integrated band density (FIGS. 8A-8C)
T3 construct: from tissue; host or cells: adult murine retina
T3 sequence (O70325 whole entry): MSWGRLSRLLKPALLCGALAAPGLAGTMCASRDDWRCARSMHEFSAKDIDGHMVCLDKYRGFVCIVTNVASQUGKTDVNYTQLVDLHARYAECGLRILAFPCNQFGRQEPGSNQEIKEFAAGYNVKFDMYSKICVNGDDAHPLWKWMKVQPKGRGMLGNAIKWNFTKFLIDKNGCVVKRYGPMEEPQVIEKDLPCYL
Procedure: A gel shift assay was developed for the detection of either in vitro cell line or in vivo tissue target engagement (TE) of a GPX4 inhibitor. See FIG. 7 for a schematic of the assay.
In vitro labeling protocol: Two frozen murine retinas were added directly to 0.5 mL Precellys® tubes with ceramic beads and 200 μL of cold mPER with 1× Roche EDTA-free protease inhibitors and 5 mM TCEP. The retina tissue was homogenized using a single 15 s burst at 4500 RPM at 4° C. The tubes were spun at 5 k×g for 5 min @ 4° C. to remove the foam, then all liquid was transferred to 1.5 mL Eppendorfs®. The samples were spun @ 20 k×g for 10 min at 4° C., and the clarified lysates were transferred to clean tubes. 27.5 μL of each of the vehicle controls were combined into one tube to provide a labeling standard sample.
For the labeling control, 50 μL of sample was added to 1 μL of 5 mM RSL3 and another 50 μL of sample was added to DMSO as a control. The samples were mixed and incubated for 1 hr at room temperature (RT). […]
Blots were blocked with 5% Milk in TBST for 1 hr. […] Anti-rabbit-HRP was used at 1:5000 in 5% milk in TBST for ˜1 hr RT and signal was detected using the Western Pico® ECL reagent. […] The integrated density of bands for +/−streptavidin was quantitated using ImageJ® (National Institutes of Health).

[4] = molecular target: T4, transglutaminase 2 (TGase 2) (Homo sapiens, UniProt P21980); conditions: under a modified assay condition; cited from earlier work
T4 sequence (P21980 1-687): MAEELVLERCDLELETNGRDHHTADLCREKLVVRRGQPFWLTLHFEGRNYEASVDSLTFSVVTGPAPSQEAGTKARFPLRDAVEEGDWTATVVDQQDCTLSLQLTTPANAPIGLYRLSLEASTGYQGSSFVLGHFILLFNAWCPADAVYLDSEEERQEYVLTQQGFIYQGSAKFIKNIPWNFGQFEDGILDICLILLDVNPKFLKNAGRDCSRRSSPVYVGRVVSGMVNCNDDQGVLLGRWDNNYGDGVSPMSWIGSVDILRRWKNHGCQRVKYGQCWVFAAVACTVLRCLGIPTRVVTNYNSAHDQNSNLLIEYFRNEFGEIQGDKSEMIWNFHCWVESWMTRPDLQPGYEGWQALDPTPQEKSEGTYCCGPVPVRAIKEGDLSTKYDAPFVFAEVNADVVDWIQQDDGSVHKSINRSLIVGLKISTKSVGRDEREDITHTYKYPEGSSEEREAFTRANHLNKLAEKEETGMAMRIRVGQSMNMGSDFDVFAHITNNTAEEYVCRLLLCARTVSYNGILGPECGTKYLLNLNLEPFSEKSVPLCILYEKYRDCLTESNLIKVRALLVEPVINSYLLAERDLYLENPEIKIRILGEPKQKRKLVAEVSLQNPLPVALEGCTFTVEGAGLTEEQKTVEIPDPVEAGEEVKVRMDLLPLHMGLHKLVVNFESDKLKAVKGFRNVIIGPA

Compound	selective killing of senescent HUVEC cells as compared to non-senescent HUVECs [2]	selective killing of senescent HRMEC cells as compared to non-senescent HRMECs [3]	also measured
[N-]=[N+]=CC(=O)CC[C@H](N)C(=O)O [6-Diazo-5-oxo-L-norleucine]	–	–	IC50 [1]: ~1000 µM
CNC(=O)c1cn(C[C@H](F)CCc2ccc(NC(=O)Cc3cc(OC4CC(F)(F)C4)cc(C)n3)nn2)nn1 [IPN-60090 dihydrochloride]	–	–	activity against GLS-2 (GLS2): no activity observed
O=C(/C(C[N+](=O)[O-])=N/O)N1CCN(C(c2ccc(Cl)cc2)c2ccc(Cl)cc2)CC1 [JKE-1674, (E)-1-(4-(bis(4-chlorophenyl)methyl)piperazin-1-yl)-2-(hydroxyimino)-3-nitropropan-1-one]	selectively senolytic	–	–
Cc1onc(C(=O)N2CCN(C(c3ccc(Cl)cc3)c3ccc(Cl)cc3)CC2)c1[N+](=O)[O-] [ML210]	–	selectively senolytic	–
COC(=O)c1ccc([C@H]2c3[nH]c4ccccc4c3C[C@H](C(=O)OC)N2C(=O)CCl)cc1 [RSL3, (1S,3R)-methyl 2-(2-chloroacetyl)-1-(4-(methoxycarbonyl)phenyl)-2,3,4,9-tetrahydro-1H-pyrido[3,4-b]indole-3-carboxylate]	selectively senolytic	selectively senolytic	GPX4 target engagement (TE) (GPX4): dose-dependent GPX4 TE
GK921	–	–	IC50 [4]: 8.93 µM

Source: patent US20240245680A1, “Methods of Treating Retinal Vasculopathies” (Unity Biotechnology, Inc., priority 2021, published 2024)
